In BigSolDB 2.1:

**Q.** What does the source list for `NC(N)=S`?
**A.** solubility (mole fraction) (in 2-butanone, 283.15 K): 0.0135; solubility (mole fraction) (in 2-butanone, 288.15 K): 0.0154; solubility (mole fraction) (in 2-butanone, 293.15 K): 0.0171; solubility (mole fraction) (in 2-butanone, 298.15 K): 0.0189; solubility (mole fraction) (in 2-butanone, 303.15 K): 0.0203; solubility (mole fraction) (in 2-butanone, 308.15 K): 0.0219; solubility (mole fraction) (in 2-butanone, 313.15 K): 0.0234; solubility (mole fraction) (in 2-butanone, 318.15 K): 0.0247; solubility (mole fraction) (in 2-butanone, 323.15 K): 0.0264; solubility (mole fraction) (in acetone, 283.15 K): 0.0348; solubility (mole fraction) (in acetone, 288.15 K): 0.0364; solubility (mole fraction) (in acetone, 293.15 K): 0.0375; solubility (mole fraction) (in acetone, 298.15 K): 0.0389; solubility (mole fraction) (in acetone, 303.15 K): 0.0401; solubility (mole fraction) (in acetone, 308.15 K): 0.042; solubility (mole fraction) (in acetone, 313.15 K): 0.0438; solubility (mole fraction) (in acetone, 318.15 K): 0.0465; solubility (mole fraction) (in acetone, 323.15 K): 0.0482; solubility (mole fraction) (in acetonitrile, 283.15 K): 0.00865; solubility (mole fraction) (in acetonitrile, 288.15 K): 0.00982; solubility (mole fraction) (in acetonitrile, 293.15 K): 0.0107; solubility (mole fraction) (in acetonitrile, 298.15 K): 0.012; solubility (mole fraction) (in acetonitrile, 303.15 K): 0.0134; solubility (mole fraction) (in acetonitrile, 308.15 K): 0.0146; solubility (mole fraction) (in acetonitrile, 313.15 K): 0.016; solubility (mole fraction) (in acetonitrile, 318.15 K): 0.018; solubility (mole fraction) (in acetonitrile, 323.15 K): 0.0196; solubility (mole fraction) (in ethanol, 283.15 K): 0.0172; solubility (mole fraction) (in ethanol, 288.15 K): 0.02; solubility (mole fraction) (in ethanol, 293.15 K): 0.0227; solubility (mole fraction) (in ethanol, 298.15 K): 0.0254; solubility (mole fraction) (in ethanol, 303.15 K): 0.0285; solubility (mole fraction) (in ethanol, 308.15 K): 0.0315; solubility (mole fraction) (in ethanol, 313.15 K): 0.0353; solubility (mole fraction) (in ethanol, 318.15 K): 0.0394; solubility (mole fraction) (in ethanol, 323.15 K): 0.0442; solubility (mole fraction) (in ethyl acetate, 283.15 K): 0.00497; solubility (mole fraction) (in ethyl acetate, 288.15 K): 0.00519; solubility (mole fraction) (in ethyl acetate, 293.15 K): 0.00548; solubility (mole fraction) (in ethyl acetate, 298.15 K): 0.0058; solubility (mole fraction) (in ethyl acetate, 303.15 K): 0.0062; solubility (mole fraction) (in ethyl acetate, 308.15 K): 0.00664; solubility (mole fraction) (in ethyl acetate, 313.15 K): 0.00718; solubility (mole fraction) (in ethyl acetate, 318.15 K): 0.00769; solubility (mole fraction) (in ethyl acetate, 323.15 K): 0.00814; solubility (mole fraction) (in isobutanol, 283.15 K): 0.00827; solubility (mole fraction) (in isobutanol, 288.15 K): 0.0101; solubility (mole fraction) (in isobutanol, 293.15 K): 0.0116; solubility (mole fraction) (in isobutanol, 298.15 K): 0.0132; solubility (mole fraction) (in isobutanol, 303.15 K): 0.0152; solubility (mole fraction) (in isobutanol, 308.15 K): 0.0171; solubility (mole fraction) (in isobutanol, 313.15 K): 0.0189; solubility (mole fraction) (in isobutanol, 318.15 K): 0.0224; solubility (mole fraction) (in isobutanol, 323.15 K): 0.0251; solubility (mole fraction) (in isopropanol, 283.15 K): 0.0133; solubility (mole fraction) (in isopropanol, 288.15 K): 0.0151; solubility (mole fraction) (in isopropanol, 293.15 K): 0.0168; solubility (mole fraction) (in isopropanol, 298.15 K): 0.019; solubility (mole fraction) (in isopropanol, 303.15 K): 0.0225; solubility (mole fraction) (in isopropanol, 308.15 K): 0.0246; solubility (mole fraction) (in isopropanol, 313.15 K): 0.0273; solubility (mole fraction) (in isopropanol, 318.15 K): 0.0308; solubility (mole fraction) (in isopropanol, 323.15 K): 0.0344; solubility (mole fraction) (in methanol, 283.15 K): 0.0423; solubility (mole fraction) (in methanol, 288.15 K): 0.0471; solubility (mole fraction) (in methanol, 293.15 K): 0.0521; solubility (mole fraction) (in methanol, 298.15 K): 0.0596; solubility (mole fraction) (in methanol, 303.15 K): 0.0644; solubility (mole fraction) (in methanol, 308.15 K): 0.07; solubility (mole fraction) (in methanol, 313.15 K): 0.0761; solubility (mole fraction) (in methanol, 318.15 K): 0.0848; solubility (mole fraction) (in methanol, 323.15 K): 0.0944; solubility (mole fraction) (in methyl acetate, 283.15 K): 0.00556; solubility (mole fraction) (in methyl acetate, 288.15 K): 0.00628; solubility (mole fraction) (in methyl acetate, 293.15 K): 0.00673; solubility (mole fraction) (in methyl acetate, 298.15 K): 0.00747; solubility (mole fraction) (in methyl acetate, 303.15 K): 0.00814; solubility (mole fraction) (in methyl acetate, 308.15 K): 0.00885; solubility (mole fraction) (in methyl acetate, 313.15 K): 0.00951; solubility (mole fraction) (in methyl acetate, 318.15 K): 0.0102; solubility (mole fraction) (in methyl acetate, 323.15 K): 0.0109; solubility (mole fraction) (in n-butanol, 283.15 K): 0.0104; solubility (mole fraction) (in n-butanol, 288.15 K): 0.0121; solubility (mole fraction) (in n-butanol, 293.15 K): 0.0133; solubility (mole fraction) (in n-butanol, 298.15 K): 0.015; solubility (mole fraction) (in n-butanol, 303.15 K): 0.0173; solubility (mole fraction) (in n-butanol, 308.15 K): 0.0195; solubility (mole fraction) (in n-butanol, 313.15 K): 0.0212; solubility (mole fraction) (in n-butanol, 318.15 K): 0.0238; solubility (mole fraction) (in n-butanol, 323.15 K): 0.0274; solubility (mole fraction) (in n-propanol, 283.15 K): 0.0128; solubility (mole fraction) (in n-propanol, 288.15 K): 0.0143; solubility (mole fraction) (in n-propanol, 293.15 K): 0.0157; solubility (mole fraction) (in n-propanol, 298.15 K): 0.0177; solubility (mole fraction) (in n-propanol, 303.15 K): 0.0209; solubility (mole fraction) (in n-propanol, 308.15 K): 0.0231; solubility (mole fraction) (in n-propanol, 313.15 K): 0.0255; solubility (mole fraction) (in n-propanol, 318.15 K): 0.029; solubility (mole fraction) (in n-propanol, 323.15 K): 0.0326; solubility (mole fraction) (in water, 283.15 K): 0.0211; solubility (mole fraction) (in water, 288.15 K): 0.0265; solubility (mole fraction) (in water, 293.15 K): 0.0325; solubility (mole fraction) (in water, 298.15 K): 0.0396; solubility (mole fraction) (in water, 303.15 K): 0.0493; solubility (mole fraction) (in water, 308.15 K): 0.0592; solubility (mole fraction) (in water, 313.15 K): 0.0701; solubility (mole fraction) (in water, 318.15 K): 0.0835; solubility (mole fraction) (in water, 323.15 K): 0.102
